This is an account of results in patent US12473303B2, “4-[[(7-aminopyrazolo[1,5-a]pyrimidin-5-yl)amino methyl]piperidin-3-ol compounds and their therapeutic use” (CARRICK THERAPEUTICS LIMITED, priority 2019, dated 2025).

The target in test [1] is Human CDK12 wt/CycK (Homo sapiens (Human), UniProt Q9NYV4). The test is described as follows: Radiometric protein kinase assay (33PanQinase Activity Assay), CDK12. It is filed as biochemical. The conditions noted are these: for CDK7/CDK12: ratio greater than 1 indicated selectivity for CDK12. On the procedure:
(§1) A radiometric protein kinase assay (^33PanQinase® Activity Assay) was used for measuring the kinase activity of the two protein kinases (CDK12/CDK7). All kinase assays were performed in 96-well FlashPlates™ from PerkinElmer (Boston, MA, USA) in a 50 μL reaction volume.
(§2) The reaction cocktail was pipetted in four steps in the following order: • 20 μL of assay buffer (standard buffer) • 5 μL of ATP solution (in H2O) • 5 μL of test compound (in 10% DMSO) • 10 μL of substrate/10 μL of enzyme solution (premixed)
(§3) The reaction mixture was incubated at 30° C. for 60 min and then stopped by the addition of 2% (v/v) H3PO4. Plates were aspirated and washed two times with 200 μL 0.9% (w/v) NaCl. Incorporation of ^33Pi was determined with a microplate scintillation count (Microbeta, Wallac).
(§4) The fitting method used was a least-squares fit.

Test [2] deals with Human CDK7/CycH/MAT1 (Homo sapiens (Human), UniProt P50613). The test can be described thus: Radiometric protein kinase assay (33PanQinase Activity Assay), CDK7. It is filed as biochemical. The conditions noted are these: Table 1; ATP 3 μM. On the procedure:
as §1, §2, §3, §4

Test [3] concerns A673 cells. The test can be described thus: Cellular potency in A673 cells. It is filed as cell-based. The conditions noted are these: for IC50: Homo sapiens, A673, Table 3, A673 cells; for Ratio of Biochemical Potency: Cellular Potency: Table 3, ratio >0.9 is an indicator of Cyclin K degradation.
The mark [4] stands for this setting: Table 1, ATP 0.3 μM, read-out: CDK12 IC50.
Where [5] appears, read: Table 3, CDK12 kinase activity, read-out: Biochemical Potency IC50.

Where two headings read alike, the source gives them in different places.

Chain of Human CDK12 wt/CycK (Q9NYV4 whole entry): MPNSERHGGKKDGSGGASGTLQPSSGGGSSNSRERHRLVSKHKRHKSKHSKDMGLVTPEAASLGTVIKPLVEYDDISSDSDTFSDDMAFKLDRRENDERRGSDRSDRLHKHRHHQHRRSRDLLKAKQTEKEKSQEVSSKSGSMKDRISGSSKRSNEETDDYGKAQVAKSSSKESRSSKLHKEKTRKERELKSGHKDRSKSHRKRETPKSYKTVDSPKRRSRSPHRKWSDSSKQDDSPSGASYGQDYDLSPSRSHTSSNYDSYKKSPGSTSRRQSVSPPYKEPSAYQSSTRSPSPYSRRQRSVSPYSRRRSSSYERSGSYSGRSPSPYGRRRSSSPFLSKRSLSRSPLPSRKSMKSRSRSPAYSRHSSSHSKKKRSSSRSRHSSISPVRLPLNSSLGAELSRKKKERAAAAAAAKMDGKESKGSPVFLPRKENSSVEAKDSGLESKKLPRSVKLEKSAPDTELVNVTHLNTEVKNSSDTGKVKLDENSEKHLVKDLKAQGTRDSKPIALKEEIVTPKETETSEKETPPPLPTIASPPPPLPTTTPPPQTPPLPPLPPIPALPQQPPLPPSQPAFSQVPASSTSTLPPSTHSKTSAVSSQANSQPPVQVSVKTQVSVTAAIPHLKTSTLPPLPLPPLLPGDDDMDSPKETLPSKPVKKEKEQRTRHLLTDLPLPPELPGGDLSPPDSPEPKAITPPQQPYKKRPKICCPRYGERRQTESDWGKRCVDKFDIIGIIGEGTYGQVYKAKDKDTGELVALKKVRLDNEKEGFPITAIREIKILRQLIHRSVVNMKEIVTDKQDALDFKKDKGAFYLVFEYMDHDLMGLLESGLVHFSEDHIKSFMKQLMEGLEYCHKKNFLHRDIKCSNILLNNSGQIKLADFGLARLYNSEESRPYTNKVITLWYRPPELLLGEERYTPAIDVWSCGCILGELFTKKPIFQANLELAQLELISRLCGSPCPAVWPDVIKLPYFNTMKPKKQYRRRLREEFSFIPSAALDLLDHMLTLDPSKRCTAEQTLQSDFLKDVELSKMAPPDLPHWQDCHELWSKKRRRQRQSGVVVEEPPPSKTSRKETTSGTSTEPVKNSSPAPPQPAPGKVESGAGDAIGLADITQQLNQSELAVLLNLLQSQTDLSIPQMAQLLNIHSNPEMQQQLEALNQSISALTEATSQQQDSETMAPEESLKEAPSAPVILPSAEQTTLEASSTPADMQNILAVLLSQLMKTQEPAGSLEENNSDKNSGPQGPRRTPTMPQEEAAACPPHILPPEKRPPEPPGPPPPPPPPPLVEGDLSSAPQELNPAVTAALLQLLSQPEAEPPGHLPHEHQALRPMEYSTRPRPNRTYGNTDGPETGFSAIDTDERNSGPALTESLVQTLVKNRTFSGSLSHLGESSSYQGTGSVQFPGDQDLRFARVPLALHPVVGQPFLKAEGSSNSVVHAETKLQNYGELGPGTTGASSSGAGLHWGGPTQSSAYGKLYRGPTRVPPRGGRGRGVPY
Chain of Human CDK12 wt/CycK (O75909 whole entry partner): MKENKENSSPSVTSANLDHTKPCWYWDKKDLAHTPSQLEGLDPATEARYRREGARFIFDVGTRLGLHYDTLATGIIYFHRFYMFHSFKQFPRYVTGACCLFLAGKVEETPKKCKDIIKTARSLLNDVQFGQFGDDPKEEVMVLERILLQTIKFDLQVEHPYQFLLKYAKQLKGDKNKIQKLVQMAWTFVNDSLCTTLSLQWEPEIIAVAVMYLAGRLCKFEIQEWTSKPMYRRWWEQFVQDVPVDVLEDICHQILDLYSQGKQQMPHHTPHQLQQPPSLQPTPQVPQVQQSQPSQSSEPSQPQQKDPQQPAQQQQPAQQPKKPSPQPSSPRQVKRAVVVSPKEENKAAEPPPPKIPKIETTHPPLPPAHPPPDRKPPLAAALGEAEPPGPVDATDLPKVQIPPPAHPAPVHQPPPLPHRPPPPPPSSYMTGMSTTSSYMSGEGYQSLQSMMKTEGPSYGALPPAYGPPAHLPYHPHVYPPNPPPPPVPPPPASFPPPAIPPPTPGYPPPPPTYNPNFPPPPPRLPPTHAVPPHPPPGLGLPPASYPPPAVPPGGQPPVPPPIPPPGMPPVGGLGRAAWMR
Chain of Human CDK7/CycH/MAT1 (P50613 whole entry): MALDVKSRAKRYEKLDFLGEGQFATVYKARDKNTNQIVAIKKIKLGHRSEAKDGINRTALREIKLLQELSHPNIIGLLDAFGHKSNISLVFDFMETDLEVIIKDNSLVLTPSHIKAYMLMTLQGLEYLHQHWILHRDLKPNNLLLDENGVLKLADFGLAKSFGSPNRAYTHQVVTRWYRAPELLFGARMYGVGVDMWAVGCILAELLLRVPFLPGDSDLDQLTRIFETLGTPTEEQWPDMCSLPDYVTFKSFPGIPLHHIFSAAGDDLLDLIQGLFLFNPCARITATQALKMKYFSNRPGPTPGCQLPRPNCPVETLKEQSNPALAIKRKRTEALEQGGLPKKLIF
Chain of Human CDK7/CycH/MAT1 (P51946 whole entry partner): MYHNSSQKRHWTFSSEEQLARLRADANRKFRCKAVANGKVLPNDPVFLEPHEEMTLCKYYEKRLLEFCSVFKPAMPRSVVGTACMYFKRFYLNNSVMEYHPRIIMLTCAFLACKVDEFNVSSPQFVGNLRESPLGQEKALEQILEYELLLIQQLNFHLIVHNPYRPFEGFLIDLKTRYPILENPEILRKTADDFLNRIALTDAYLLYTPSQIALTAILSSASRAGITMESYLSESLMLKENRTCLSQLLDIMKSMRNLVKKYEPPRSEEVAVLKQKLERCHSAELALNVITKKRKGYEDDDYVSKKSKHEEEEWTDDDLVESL
Chain of Human CDK7/CycH/MAT1 (P51948 whole entry partner): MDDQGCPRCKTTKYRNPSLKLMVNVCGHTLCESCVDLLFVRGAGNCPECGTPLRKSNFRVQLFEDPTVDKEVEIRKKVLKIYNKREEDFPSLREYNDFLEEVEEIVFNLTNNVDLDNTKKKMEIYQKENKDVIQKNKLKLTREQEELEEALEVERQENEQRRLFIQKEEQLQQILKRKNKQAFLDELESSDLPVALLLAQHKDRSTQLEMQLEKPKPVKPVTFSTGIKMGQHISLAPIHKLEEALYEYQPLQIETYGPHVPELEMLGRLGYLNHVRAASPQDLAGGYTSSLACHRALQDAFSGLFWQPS

For orientation: IC50 means the point on the concentration scale where inhibition reaches its midpoint. Take `Cc1ccn2c(CNc3cc(NC[C@H]4CCNC[C@@H]4O)nc4c(C(C)C)cnn34)c(C)nc2c1` [H-APPAMP-015, (3R,4R)-4-(((7-(((2,7-dimethylimidazo[1,2-a]pyridin-3-yl)methyl)amino)-3-isopropylpyrazolo[1,5-a]pyrimidin-5-yl)amino)methyl)piperidin-3-ol]: the IC50 in test [1] (setting [4]) stood at 277 nM; in test [1] (setting [5]) it was 277 nM; in test [2], 3 nM; in test [3] it was 151 nM. Also, in test [1] (Table 1), the CDK7/CDK12 was 0.01. Besides, the “Ratio of Biochemical Potency: Cellular Potency” value (“Ratio of Biochemical Potency” for short) in test [3] was 1.8.

Consider `CC(C)c1cnn2c(NCc3cnc4ccccn34)cc(NC[C@H]3CCNC[C@@H]3O)nc12` [H-APPAMP-016, (3R,4R)-4-(((7-((imidazo[1,2-a]pyridin-3-ylmethyl)amino)-3-isopropylpyrazolo[1,5-a]pyrimidin-5-yl)amino)methyl)piperidin-3-ol], for which the half-inhibitory concentration (IC50) in test [1] (setting [4]) was found to be 96 nM; in test [1] (setting [5]), 96 nM; in test [2], 179 nM; in test [3] it was 14.8 nM. For the same compound, the CDK7/CDK12 in test [1] (Table 1) worked out at 1.9. Besides, the “Ratio of Biochemical Potency” value in test [3] was 6.5.

For the compound `Cc1c(CNc2cc(NC[C@H]3CCNC[C@@H]3O)nc3c(C(C)C)cnn23)nc2ccccn12` [H-APPAMP-017, (3R,4R)-4-(((3-isopropyl-7-(((3-methylimidazo[1,2-a]pyridin-2-yl)methyl)amino)pyrazolo[1,5-a]pyrimidin-5-yl)amino)methyl)piperidin-3-ol], the 50% inhibitory concentration (IC50) was determined as 63 nM in test [1] (setting [4]), 143 nM in test [1] (setting [5]), 40 nM in test [2] and 8.3 nM in test [3]. The CDK7/CDK12 in test [1] (Table 1) came out at 0.6. Moreover, the “Ratio of Biochemical Potency” value in test [3] amounted to 17.2.

For `[2H]C([2H])(Nc1cc(NC[C@H]2CCNC[C@@H]2O)nc2c(C(C)C)cnn12)c1cn2ccccc2n1` [H-APPAMP-018, (3R,4R)-4-(((7-((imidazo[1,2-a]pyridin-2-ylmethyl-d2)amino)-3-isopropylpyrazolo[1,5-a]pyrimidin-5-yl)amino)methyl)piperidin-3-ol], the IC50 amounted to 65 nM in test [1] (setting [4]), 65 nM in test [1] (setting [5]), 206 nM in test [2] and 16.3 nM in test [3]. For the same compound, the CDK7/CDK12 in test [1] (Table 1) was 3.2. Also, the “Ratio of Biochemical Potency” value in test [3] is 4.0.

For the compound `CC(C)c1cnn2c(NC(C)c3cn4ccccc4n3)cc(NC[C@H]3CCNC[C@@H]3O)nc12` (stereo partly drawn) [H-APPAMP-019, (3R,4R)-4-(((7-((1-(imidazo[1,2-a]pyridin-2-yl)ethyl)amino)-3-isopropylpyrazolo[1,5-a]pyrimidin-5-yl)amino)methyl)piperidin-3-ol], the IC50 in test [1] (setting [4]) turned out to be 522 nM; in test [1] (setting [5]) it was 522 nM; in test [2], 640 nM; in test [3], 76.9 nM. For the same compound, the CDK7/CDK12 in test [1] (Table 1) stood at 1.2. In addition, the “Ratio of Biochemical Potency” value in test [3] was found to be 6.8.

Turning to `CC(C)c1cnn2c(NCc3cc4ccccc4o3)cc(NC[C@H]3CCNC[C@@H]3O)nc12` [H-APPAMP-020, (3R,4R)-4-(((7-((benzofuran-2-ylmethyl)amino)-3-isopropylpyrazolo[1,5-a]pyrimidin-5-yl)amino)methyl)piperidin-3-ol], the half-inhibitory concentration (IC50) in test [1] (setting [4]) was found to be 540 nM; in test [1] (setting [5]), 540 nM; in test [2] it was 82 nM; in test [3], 116 nM. The CDK7/CDK12 in test [1] (Table 1) worked out at 0.2. In addition, the “Ratio of Biochemical Potency” value in test [3] is given as 4.7.

For `CC(C)c1cnn2c(NCc3cnc4ccccc4c3)cc(NC[C@H]3CCNC[C@@H]3O)nc12` [H-APPAMP-021, (3R,4R)-4-(((3-isopropyl-7-((quinolin-3-ylmethyl)amino)pyrazolo[1,5-a]pyrimidin-5-yl)amino)methyl)piperidin-3-ol], the IC50 in test [1] (setting [4]) was 167 nM; in test [1] (setting [5]) it was 167 nM; in test [2], 28 nM; in test [3], 2.7 nM. Also, the CDK7/CDK12 in test [1] (Table 1) is given as 0.2. In addition, the “Ratio of Biochemical Potency” value in test [3] is 62.

With `Cc1cccn2cc(CNc3cc(NC[C@H]4CCNC[C@@H]4O)nc4c(C5CC5)cnn34)nc12` [H-APPAMP-022, (3R,4R)-4-(((3-cyclopropyl-7-(((8-methylimidazo[1,2-a]pyridin-2-yl)methyl)amino)pyrazolo[1,5-a]pyrimidin-5-yl)amino)methyl)piperidin-3-ol], the IC50 in test [1] (setting [4]) is 164 nM; in test [1] (setting [5]), 164 nM; in test [2], 622 nM; in test [3] it was 10.3 nM. Also, the CDK7/CDK12 in test [1] (Table 1) stood at 3.8. Besides, the “Ratio of Biochemical Potency” value in test [3] turned out to be 16.

For `CC(C)c1cnn2c(NCc3nc4ccccn4c3C(F)(F)F)cc(NC[C@H]3CCNC[C@@H]3O)nc12` [H-APPAMP-023, (3R,4R)-4-(((3-isopropyl-7-(((3-(trifluoromethyl)imidazo[1,2-a]pyridin-2-yl)methyl)amino)pyrazolo[1,5-a]pyrimidin-5-yl)amino)methyl)piperidin-3-ol], the half-inhibitory concentration (IC50) in test [1] (setting [4]) turned out to be 702 nM; in test [1] (setting [5]) it was 702 nM; in test [2] it was 102 nM; in test [3], 296 nM. Further, the CDK7/CDK12 in test [1] (Table 1) is 0.1. Besides, the “Ratio of Biochemical Potency” value in test [3] is 2.4.

Turning to `CC(C)c1cnn2c(NCc3nc4ccccn4c3C3CC3)cc(NC[C@H]3CCNC[C@@H]3O)nc12` [H-APPAMP-024, (3R,4R)-4-(((7-(((3-cyclopropylimidazo[1,2-a]pyridin-2-yl)methyl)amino)-3-isopropylpyrazolo[1,5-a]pyrimidin-5-yl)amino)methyl)piperidin-3-ol], the IC50 in test [1] (setting [4]) was found to be 93 nM; in test [1] (setting [5]), 93 nM; in test [2] it was 283 nM; in test [3], 19.8 nM. In addition, in test [1] (Table 1), the CDK7/CDK12 is 3.0. Further, in test [3], the “Ratio of Biochemical Potency” value came to 4.7.

With `CCc1cnn2c(NCc3cn4cccc(C)c4n3)cc(NC[C@H]3CCNC[C@@H]3O)nc12` [H-APPAMP-026, (3R,4R)-4-(((3-ethyl-7-(((8-methylimidazo[1,2-a]pyridin-2-yl)methyl)amino)pyrazolo[1,5-a]pyrimidin-5-yl)amino)methyl)piperidin-3-ol], the IC50 came to 31 nM in test [1] (setting [4]), 31 nM in test [1] (setting [5]), 69 nM in test [2] and 2.5 nM in test [3]. Further, the CDK7/CDK12 in test [1] (Table 1) stood at 2.2. For the same compound, in test [3], the “Ratio of Biochemical Potency” value stood at 12.

With `COc1cccc2nc(CNc3cc(NC[C@H]4CCNC[C@@H]4O)nc4c(C5CC5)cnn34)cn12` [H-APPAMP-027, (3R,4R)-4-(((3-cyclopropyl-7-(((5-methoxyimidazo[1,2-a]pyridin-2-yl)methyl)amino)pyrazolo[1,5-a]pyrimidin-5-yl)amino)methyl)piperidin-3-ol], the IC50 in test [1] (setting [4]) was 28 nM; in test [1] (setting [5]) it was 28 nM; in test [2], 127 nM; in test [3], 1.6 nM. Moreover, the CDK7/CDK12 in test [1] (Table 1) came to 4.5. The “Ratio of Biochemical Potency” value in test [3] stood at 18.

Regarding `O[C@H]1CNCC[C@@H]1CNc1cc(NCc2cn3nc(C4CC4)ccc3n2)n2ncc(C3CC3)c2n1` [H-APPAMP-028, (3R,4R)-4-(((3-cyclopropyl-7-(((6-cyclopropylimidazo[1,2-b]pyridazin-2-yl)methyl)amino)pyrazolo[1,5-a]pyrimidin-5-yl)amino)methyl)piperidin-3-ol], the IC50 came out at 37 nM in test [1] (setting [4]), 37 nM in test [1] (setting [5]), 68 nM in test [2] and 13.1 nM in test [3]. The CDK7/CDK12 in test [1] (Table 1) is on record as 1.8. Moreover, in test [3], the “Ratio of Biochemical Potency” value is 2.8.

With `Cc1cccn2cc(CNc3cc(NC[C@H]4CCNC[C@@H]4O)nc4c(C5CCC5)cnn34)nc12` [H-APPAMP-029, (3R,4R)-4-(((3-cyclobutyl-7-(((8-methylimidazo[1,2-a]pyridin-2-yl)methyl)amino)pyrazolo[1,5-a]pyrimidin-5-yl)amino)methyl)piperidin-3-ol], the IC50 stood at 65 nM in test [1] (setting [4]), 65 nM in test [1] (setting [5]), 196 nM in test [2] and 18.5 nM in test [3]. Besides, the CDK7/CDK12 in test [1] (Table 1) stood at 3.0. Moreover, the “Ratio of Biochemical Potency” value in test [3] was 3.5.

Turning to `O[C@H]1CNCC[C@@H]1CNc1cc(NCc2cn3c(C4CC4)cccc3n2)n2ncc(C3CC3)c2n1` [H-APPAMP-030, (3R,4R)-4-(((3-cyclopropyl-7-(((5-cyclopropylimidazo[1,2-a]pyridin-2-yl)methyl)amino)pyrazolo[1,5-a]pyrimidin-5-yl)amino)methyl)piperidin-3-ol], the IC50 in test [1] (setting [4]) stood at 75 nM; in test [1] (setting [5]), 75 nM; in test [2] it was 274 nM; in test [3] it was 8.7 nM. The CDK7/CDK12 in test [1] (Table 1) worked out at 3.7. Further, the “Ratio of Biochemical Potency” value in test [3] is reported as 8.6.

With `CCc1cnn2c(NCc3cn4c(C)cccc4n3)cc(NC[C@H]3CCNC[C@@H]3O)nc12` [H-APPAMP-031, (3R,4R)-4-(((3-ethyl-7-(((5-methylimidazo[1,2-a]pyridin-2-yl)methyl)amino)pyrazolo[1,5-a]pyrimidin-5-yl)amino)methyl)piperidin-3-ol], the IC50 in test [1] (setting [4]) is 24 nM; in test [1] (setting [5]) it was 24 nM; in test [2] it was 919 nM; in test [3], 2.2 nM. The CDK7/CDK12 in test [1] (Table 1) is on record as 38.3. The “Ratio of Biochemical Potency” value in test [3] was 11.
